The values that follow come from patent US20120040898A1, “PHARMACEUTICAL COMPOSITIONS” (TAISHO PHARMACEUTICAL CO., LTD, priority 2009, published 2012).

Counter-ions that a name gives are not always drawn.

Common to all, as to assay type: in vivo
The test system of assay [1] is Zucker fatty rats. Put plainly: Combination treatment of compound A and acarbose in diabetic rats (soluble starch loading). The following applies: fasted Zucker fatty rats; single oral dose compound A 1 mg/kg, acarbose 1 mg/kg, alone or combined; soluble starch 2 g/kg one minute later; up to 120 minutes; mean ± standard error. How it is done: Six male Zucker fatty rats (11-week old) were fasted and orally administered with single doses of compound A (1 mg/kg) and an α-glucosidase inhibitor, acarbose (1 mg/kg), either alone or in combination. […] Wako Pure Chemical Industries, Ltd.)

For assay [2], the system named is Zucker fatty rats. Nature of the assay: Combination treatment of compound A and sitagliptin in diabetic rats (oral glucose loading). The following applies: fasted Zucker fatty rats; single oral dose compound A 1 mg/kg, sitagliptin 0.3 mg/kg, alone or combined; glucose 2 g/kg one hour later; up to 120 minutes; mean ± standard error. How it is done: Eight male Zucker fatty rats/group (10-week old) were fasted and orally administered with single doses of compound A (1 mg/kg) and a DPP-IV inhibitor, sitagliptin (0.3 mg/kg), either alone or in combination. […] Wako Pure Chemical Industries, Ltd.)

Assay [3] deals with high-fat diet loaded mice with STZ-induced diabetes mellitus. Nature of the assay: Combination treatment of compound A and glipizide in diabetic mice. The following applies: high-fat diet STZ diabetic ICR mice, non-fasting; single oral dose compound A 1 mg/kg, glipizide 10 mg/kg, alone or combined; up to 8 hours; mean ± standard error. How it is done:
After 3 weeks a high-fat diet (D12492 of Research Diets, Inc.) feeding, ICR mice (CHARLES RIVER LABORATORIES JAPAN, INC.) were intraperitoneally administered streptozocin (SIGMA-ALDRICH JAPAN K.K.; hereinafter abbreviated as STZ) to induce diabetes. […] SIGMA-ALDRICH JAPAN K.K.), either alone or in combination. Blood was taken from the tail vein of each mouse at specified time intervals and plasma glucose levels were measured by GOD colorimetry with a self-testing glucose measuring instrument (Medisafe Mini GR-102; TERUMO CORPORATION, Japan).

For assay [4], the system named is KKAy mice. Put plainly: Combination treatment of compound A and glimepiride in diabetic mice. To be noted: non-fasting, single oral dose compound A 10 mg/kg, glimepiride 0.5 mg/kg, alone or combined, up to 3 hours, mean ± standard error. How it is done:
(§1) CLEA Japan, Inc.) and 10 female C57BL mice/group (normal mice; 4-week old; CLEA Japan, Inc.) were orally administered with single doses of compound A (10 mg/kg) and an insulin secretagogue, glimepiride (0.5 mg/kg; SIGMA-ALDRICH JAPAN K.K.), either alone or in combination. Blood was taken from the tail vein of each mouse at specified time intervals and plasma glucose levels were measured by the GDH electrode method with a self-testing glucose measuring instrument (Glutest Neo Super; […] CO., LTD.)

The subject of assay [5] is KKAy mice. Nature of the assay: Chronic combination treatment of compound A and glimepiride in diabetic mice. The following applies: non-fasting, compound A 0.03% mixed diet, glimepiride 0.5 mg/kg once daily, alone or combined, one hour after drug administration, mean ± standard error. Here is the method: Seven or eight female KKAy mice/group (4-week old; CLEA JAPAN, Inc.) were orally administered with repeated doses of compound A (0.03% mixed diet; ad libitum) and an insulin secretagogue, glimepiride (0.5 mg/kg, once daily; SIGMA-ALDRICH JAPAN K.K.), either alone or in combination, for 8 weeks. […] Plasma glucose levels were measured by the GDH electrode method with a self-testing glucose measuring instrument (Glutest Neo Super; […]

Assay [6] has as its system Zucker fatty rats. Put plainly: Combination treatment of compound A and voglibose in diabetic rats (soluble starch loading). The following applies: fasted Zucker fatty rats; single oral dose compound A 1 mg/kg, voglibose 0.1 mg/kg, alone or combined; soluble starch 2 g/kg one minute later; up to 120 minutes; mean ± standard error. Here is the method:
Six male Zucker fatty rats (10-week old) were fasted and orally administered with single doses of compound A (1 mg/kg) and an α-glucosidase inhibitor, voglibose (0.1 mg/kg), either alone or in combination. […] Wako Pure Chemical Industries, Ltd.)

In assay [7] the test system is Zucker fatty rats. Put plainly: Combination treatment of compound A and vildagliptin in diabetic rats (oral glucose loading). To be noted: fasted Zucker fatty rats; single oral dose compound A 1 mg/kg, vildagliptin 3 mg/kg, alone or combined; glucose 2 g/kg one hour later; up to 120 minutes; mean ± standard error. Here is the method: One hour after the administration, the rats were orally administered with glucose solutions (2 g/kg); blood was taken from the tail vein of each rat at specified time intervals and centrifuged to collect plasma. Plasma glucose levels were measured by mutarotase-GOD method with a glucose assay kit (Glucose C2 Test Wako; Wako Pure Chemical Industries, Ltd.)

Assay [8] relates to rats with STZ-induced diabetes mellitus. Put plainly: Combination treatment of compound A and insulin in diabetic rats. To be noted: STZ diabetic SD rats, non-fasting; single oral dose compound A 1 mg/kg, subcutaneous slow-release insulin implant (one pellet), alone or combined; up to 8 hours; mean ± standard error. The text has this:
SD rats (7-week old; CHARLES RIVER LABORATORIES JAPAN, INC.) were intraperitoneally administered with streptozocin (SIGMA-ALDRICH JAPAN K.K.; hereinafter abbreviated as STZ) to induce diabetes. The rats with STZ-induced diabetes mellitus (8-week old) underwent subcutaneous implant of a slow-release insulin (one pellet of […] Canada, Inc.) or sham operation. […] Blood was taken from the tail vein of each rat at specified time intervals and centrifuged to collect plasma. […] Wako Pure Chemical Industries, Ltd.)

Assay [9] has as its system Zucker fatty rats. Put plainly: Combination treatment of compound A and miglitol in diabetic rats (soluble starch loading). To be noted: fasted Zucker fatty rats; single oral dose compound A 0.5 mg/kg, miglitol 3 mg/kg, alone or combined; soluble starch 2 g/kg one minute later; up to 120 minutes; mean ± standard error. Here is the method:
Six male Zucker fatty rats (9-week old) were fasted and orally administered with single doses of compound A (0.5 mg/kg) and an α-glucosidase inhibitor, miglitol (3 mg/kg), either alone or in combination. One minute after the administration, the rats were orally administered with soluble starch solutions (2 g/kg); blood was taken from the tail vein of each rat at specified time intervals and centrifuged to collect plasma. Plasma glucose levels were measured by mutarotase-GOD method with a glucose assay kit (Glucose C2 Test Wako; Wako Pure Chemical Industries, Ltd.)

In assay [10] the test system is high-fat diet loaded mice with STZ-induced diabetes mellitus. Nature of the assay: Combination treatment of compound A and glibenclamide in diabetic mice. The following applies: high-fat diet STZ diabetic ICR mice, non-fasting; single oral dose compound A 1 mg/kg, glibenclamide 10 mg/kg, alone or combined; up to 8 hours; mean ± standard error. The text has this: After 3 weeks a high-fat diet (D12492 of Research Diets, Inc.) feeding, ICR mice (CHARLES RIVER LABORATORIES JAPAN, INC.) were intraperitoneally administered with streptozocin (SIGMA-ALDRICH JAPAN K.K.; hereinafter abbreviated as STZ) to induce diabetes. […] SIGMA-ALDRICH JAPAN K.K.), either alone or in combination. Blood was taken from the tail vein of each mouse at specified time intervals and centrifuged to collect plasma. […] Wako Pure Chemical Industries, Ltd.)

Assay [11] has as its system C57BL mice. Put plainly: Combination treatment of compound A and glimepiride in normal mice. The following applies: normoglycemic C57BL mice, non-fasting; single oral dose compound A 10 mg/kg, glimepiride 0.5 mg/kg, alone or combined; up to 3 hours; mean ± standard error. Here is the method:
as §1

Assay [12] relates to db/db mice. Put plainly: Chronic combination treatment of compound A and metformin hydrochloride in diabetic mice. To be noted: mean ± standard error; for Change in GHb (%) / Change in plasma IRI level: 27 days; for Fasting plasma glucose level: after 27 days, fasted 16 hours; for Change in plasma IRI level: non-fasting.
Assay [13] has as its system db/db mice. Put plainly: Chronic combination treatment of compound A and pioglitazone in diabetic mice. To be noted: compound A 3 mg/kg, pioglitazone 10 mg/kg, once daily oral, alone or combined, 27 days, mean ± standard error; for Change in GHb (%): after minus before; for Change in plasma IRI level: non-fasting.
Where [14] appears, read: metformin hydrochloride 100 mg/kg, alone or with compound A 3 mg/kg.
[15] abbreviates: metformin hydrochloride 300 mg/kg, alone or with compound A 3 mg/kg.

In the case of `C[C@H]1O[C@H](O[C@H]2[C@H](O)[C@@H](O)[C@@H](O[C@H]3[C@H](O)[C@@H](O)C(O)O[C@@H]3CO)O[C@@H]2CO)[C@H](O)[C@@H](O)[C@@H]1N[C@H]1C=C(CO)[C@@H](O)[C@H](O)[C@H]1O` (stereo partly drawn) [Acarbose, acarbose], the “Δ plasma glucose AUC” value in assay [1] stood at 10192.8 ± 913.6 mg·min/dL.

Regarding `CCOc1ccc(Cc2cc([C@@H]3S[C@H](CO)[C@@H](O)[C@H](O)[C@H]3O)c(OC)cc2C)cc1` [Compound A, (1S)-1,5-anhydro-1-[5-(4-ethoxybenzyl)-2-methoxy-4-methylphenyl]-1-thio-D-glucitol], the “Δ plasma glucose AUC” value in [2] is 11239.9 ± 617.8 mg·min/dL; in assay [3], -310.3 ± 157.2 mg·h/dL; in assay [4], -83.0 ± 14.6 mg·h/dL; in [6], 10940.4 ± 952.7 mg·min/dL; in assay [7], 11690.1 ± 807.9 mg·min/dL; in assay [9], 11655.9 ± 1021.8 mg·min/dL. The “Δ plasma glucose AUC” value was 9861.6 ± 1076.0 mg·min/dL in assay [1], -130.1 ± 164.9 mg·h/dL in assay [10] and -4.2 ± 8.5 mg·h/dL in [11]. For the same molecule, the “Plasma glucose level at 4 wk of administration” value in assay [5] was determined as 154.8 ± 5.9 mg/dL. In addition, the “Plasma glucose level at 8 wk of administration” value in assay [5] was 168.6 ± 2.2 mg/dL. The “Plasma glucose AUC” value in [8] was 3983.4 ± 194.5 mg·h/dL. Moreover, the “Change in GHb (%)” value in assay [12] (compound A 3 mg/kg once daily oral, alone, GHb after minus before) was 0.14 ± 0.39%; in assay [13], 3.15 ± 0.16%. Also, the “Fasting plasma glucose level” value in assay [12] (compound A 3 mg/kg once daily oral, alone) was 275.0 ± 28.7 mg/dL. Besides, the “Change in plasma IRI level” value is -5.01 ± 2.11 ng/mL in assay [12] (compound A 3 mg/kg once daily oral, alone, after minus before) and -27.81 ± 4.41 ng/dL in assay [13]. Also, the “Non-fasting plasma glucose level” value in assay [13] is 607.9 ± 21.6 mg/dL.

Regarding `COc1ccc(Cl)cc1C(=O)NCCc1ccc(S(=O)(=O)NC(=O)NC2CCCCC2)cc1` [Glibenclamide, glibenclamide], the “Δ plasma glucose AUC” value in assay [10] came out at 140.3 ± 107.2 mg·h/dL.

Take `CCC1=C(C)CN(C(=O)NCCc2ccc(S(=O)(=O)NC(=O)N[C@H]3CC[C@H](C)CC3)cc2)C1=O` [Glimepiride, glimepiride]: the “Δ plasma glucose AUC” value in [4] was -118.6 ± 20.2 mg·h/dL. Besides, in assay [5], the “Plasma glucose level at 4 wk of administration” value is 137.6 ± 13.3 mg/dL and the “Plasma glucose level at 8 wk of administration” value was 160.4 ± 8.2 mg/dL. The “Δ plasma glucose AUC” value in [11] is -104.0 ± 9.3 mg·h/dL.

As to `CN(C)C(=N)N=C(N)N` [Metformin hydrochloride, metformin hydrochloride], the “Fasting plasma glucose level” value in assay [12] (setting [14]) is given as 378.3 ± 33.4 mg/dL; in [12] (setting [15]) it was 254.0 ± 24.7 mg/dL. Besides, the “Change in GHb (%)” value in assay [12] (metformin hydrochloride 100 mg/kg, alone or with compound A 3 mg/kg, oral) turned out to be 2.08 ± 0.33%; in assay [12] (metformin hydrochloride 300 mg/kg, alone or with compound A 3 mg/kg, oral), 1.70 ± 0.23%. Also, the entries for the “Change in plasma IRI level” value in assay [12] (setting [14]) and in [12] (setting [15]) were -9.81 ± 0.91 ng/mL and -7.36 ± 1.29 ng/mL, respectively.

As for `OCCN1C[C@H](O)[C@@H](O)[C@H](O)[C@H]1CO` [Miglitol, miglitol], the “Δ plasma glucose AUC” value in assay [9] was 8909.4 ± 1390.0 mg·min/dL.

As for `CCc1ccc(CCOc2ccc(CC3SC(=O)NC3=O)cc2)nc1` (stereo not drawn) [Pioglitazone, pioglitazone], in [13], the “Change in GHb (%)” value is given as 3.04 ± 0.36%, the “Non-fasting plasma glucose level” value came to 555.2 ± 56.9 mg/dL and the “Change in plasma IRI level” value was -43.29 ± 3.83 ng/dL.

Turning to `N[C@@H](CC(=O)N1CCn2c(nnc2C(F)(F)F)C1)Cc1cc(F)c(F)cc1F` [Sitagliptin, sitagliptin], in assay [2], the “Δ plasma glucose AUC” value is 13881.4 ± 1292.9 mg·min/dL.

As to `OCC(CO)N[C@H]1C[C@](O)(CO)[C@@H](O)[C@H](O)[C@H]1O` [Voglibose, voglibose], in assay [6], the “Δ plasma glucose AUC” value is 12395.5 ± 543.0 mg·min/dL.
